Structures can show the parent of a compound that is named as a salt. Where two headings read alike, the source gives them in different places.
Tests used:
AII receptor = biological target: T1, AII receptor (Rattus norvegicus, UniProt P25095); experiment: Displacement of 125I[Sar,Ile]AII binding in rat epididymal fat cell membranes; conditions: rat epididymal fat cell membranes (Table 8)
T1 construct: adipose tissue from the epididymal and retroperitoneal depots is quickly excised; from tissue; host or cells: membranes of collagenase-isolated adipocytes from epididymal and retroperitoneal fat of male Sprague-Dawley rats
T1 sequence (P25095 1-359): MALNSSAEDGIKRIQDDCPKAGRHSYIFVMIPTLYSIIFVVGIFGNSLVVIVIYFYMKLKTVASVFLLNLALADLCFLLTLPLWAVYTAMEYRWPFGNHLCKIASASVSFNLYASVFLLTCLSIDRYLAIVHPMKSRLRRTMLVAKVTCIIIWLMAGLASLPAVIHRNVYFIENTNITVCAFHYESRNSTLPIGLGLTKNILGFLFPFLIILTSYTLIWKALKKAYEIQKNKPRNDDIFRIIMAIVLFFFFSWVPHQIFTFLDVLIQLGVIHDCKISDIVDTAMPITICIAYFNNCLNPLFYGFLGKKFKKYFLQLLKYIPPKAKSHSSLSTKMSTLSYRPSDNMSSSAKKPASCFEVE
From the text: The experimental design involves determining the binding characteristics of adipocyte membranes harvested from two different anatomic sites at three different ages. Male Sprague-Dawley rats (Charles River Laboratories, Wilmington, Mass.) are used at 40, 70 and 100 days of age. Rats are killed by carbon dioxide inhalation on the morning of the experiment, and adipose tissue from the epididymal and retroperitoneal depots is quickly excised and placed in cold saline. The spermatic artery and vein are removed from the epididymal fat, and brown fat deposits are dissected away from the retroperitoneal depot. The adipose tissue is weighed, minced into small pieces, and approximately 10 g each transferred to a flask containing 25 ml of Krebs-Ringer-bicarbonate buffer (KRB), 6 mM glucose and 50 mg of collagenase, pH 7.4. […] Intact adipocytes dissociated from the tissue pass freely into waiting tubes, while the undigested tissue is trapped on the screen. The tubes containing the adipocytes are washed an additional 4× with 20 ml each of cold Tris buffer (10 mM Tris HCl, pH 8.0) by first allowing the adipocytes to separate from the digestion medium by flotation, removing the infranatant through polyethylene tubing attached to a syringe, resuspending the cells in the Tris buffer, and repeating this procedure. Adipocyte membranes used for binding studies are prepared as follows. […] Following centrifugation, the fat cake and supernatant are carefully removed, and the pellet resuspended in 1 ml of Tris buffer. Protein content of the high speed pellet is determined, the resuspended protein is either assayed immediately or stored at -75° before binding assays are performed. […] The assay is initiated by the addition of the membrane protein, followed by incubation at 22° C. for 30 minutes in a slowly shaking water bath. Separation of bound from free radioactivity is achieved using any appropriate filtration apparatus. We use either a Millipore or Brandel model harvesting apparatus containing a Durapore or Whatman GF/B filter, followed by 6 additional rinses with 5 ml each of cold saline. The filters are placed in tubes, and radioactivity measured in a gamma scintillation counter programmed to correct for the half-life of the isotope. Using this experimental protocol, both the affinity (KD) and number of binding sites (Bmax) for angiotensin II on the adipocyte membrane can be calculated. The relative affinities of different anatomically distinct adipocyte membranes for a variety of peptide and nonpeptide antagonists can also be determined. […] Concentration ranges can be altered dependent upon the affinity of the particular antagonist for the fat cell membrane receptor.

[1] = format: in vivo, rat; conditions: 15 mg/kg once a day by gavage, two weeks
Procedure: (§1) Body weight and food intake are monitored daily. At the end of two weeks, the rats are sacrificed and tissues are weighed. Adipocyte membranes are prepared by collagenase digestion, homogenization and centrfugation. […] Of the organs sampled, the combined largest relative and quantitative change in weight was in the adipose tissue.

adipocyte AII receptor = experiment: Epididymal adipocyte AII receptor binding (Bmax) after two weeks oral treatment; format: in vivo, rat; conditions: 4 rats/group, oral once daily for 2 weeks
Procedure: Body weight and food intake are monitored daily. At the end of two weeks, the rats are sacrificed and tissues are weighed. Adipocyte membranes are prepared by collagenase digestion, homogenization and centrfugation.
Binding is initiated by suspending the adipocyte membranes in 0.25% BSA buffer (bovine serum albumin, 50 mM Tris HCl, 5 mM MgCl2,pH 7.4) to a final concentration of 5 ug protein/10 ul buffer. […] The filters are placed in tubes, and radioactivity measured in a gamma scintillation counter programmed to correct for the half-life of the isotope. Using this experimental protocol, both the affinity (KD) and number of binding sites (Bmax) for angiotensin II on the adipocyte membrane can be calculated.

epididymal adipocytes = experiment: Epididymal adipocyte cell volume after two weeks oral treatment; format: in vivo, rat; conditions: 4 rats/group, oral once daily for 2 weeks
Procedure: as §1

[2] = read-out: Epididymal IC50 for displacement of 125I[Sar,Ile]AII binding
[3] = Epididymal IC50 for displacement of 125I[Sar,Ile]AII binding

2-butyl-3,5,7,8-tetrahydro-3-[[2'-(1H-tetrazol-5-yl)[1,1'-biphenyl]-4-yl]methyl]-pyrido[4,3-d]pyrimidin-6(4H)-carboxylic acid phenylmethyl ester
IC50 (AII receptor; [2]): 17.9 nM

2-butyl-5,6,7,8-tetrahydro-6-(2-hydroxy-2-methyl-1-oxopropyl)-3-[[2'-(1H-tetrazol-5-yl)[1,1'-biphenyl]-4-yl]methyl]-4(3H)-quinazolinone
IC50 (AII receptor; [2]): 1.36 nM

CCCCc1nc2ccc(C3(C(=O)OC)CC4CCCN4O3)cc2c(=O)n1Cc1ccc(-c2ccccc2-c2nnn[nH]2)cc1 (mixture of isomers) [trans-(+/-)-2-[2-butyl-3,4-dihydro-4-oxo-3-[[2'-(1H-tetrazol-5-yl)[1,1'-biphenyl]-4-yl]methyl]-6-quinazolinyl]hexahydropyrrolo[1,2-b]isoxazole-2-carboxylic acid methyl ester monohydro]
IC50 (AII receptor; [3]): 23.5 nM

CCCCc1nc2ccc(C3(C)NN[C@H]4C(=O)N(C)C(=O)[C@H]43)cc2c(=O)n1Cc1ccc(-c2ccccc2-c2nn[nH]n2)cc1 (relative stereo) [(3aα,6aα)-3-[2-butyl-3,4-dihydro-4-oxo-3-[[2'-(1H-tetrazol-5-yl)[1,1'-biphenyl]-4-yl]methyl]-6-quinazolinyl]-2,3,3a,6a-tetrahydro-3,5-dimethylpyrrolo[3,4-c]pyrazole-4,6-(1H,5H)-dione]
IC50 (AII receptor; [2]): 550 nM

CCCCc1nc2ccc(C(C)(O)C3CCN(C)C3=O)cc2c(=O)n1Cc1ccc(-c2ccccc2-c2nn[nH]n2)cc1 (single isomer, unassigned) [2-butyl-6-[1-hydroxy-1-(1-methyl-2-oxo-3-pyrrolidinyl)ethyl]-3-[[2'-(1H-tetrazol-5-yl)[1,1'-biphenyl]-4-yl]methyl]-4(3H)-quinazolinone isomer 1]
IC50 (AII receptor; [3]): 7.9 nM

CCCCc1nc2ccc(C(O)C3CCCS3(=O)=O)cc2c(=O)n1Cc1ccc(-c2ccccc2-c2nn[nH]n2)cc1 (single isomer, unassigned) [2-butyl-6-[hydroxy(tetrahydro-2-thienyl)methyl]-3-[[2'-(1H-tetrazol-5-yl)[1,1'-biphenyl]-4-yl]methyl]-4(3H)-quinazolinone S,S-dioxide isomer 1]
IC50 (AII receptor; [3]): 1.68 nM

CCCCc1nc2ccc(C(O)C3CCCS3(=O)=O)cc2c(=O)n1Cc1ccc(-c2ccccc2-c2nn[nH]n2)cc1 (single isomer, unassigned) [2-butyl-6-[hydroxy(tetrahydro-2-thienyl)methyl]-3-[[2'-(1H-tetrazol-5-yl)[1,1'-biphenyl]-4-yl]methyl]-4(3H)-quinazolinone S,S-dioxide isomer 2]
IC50 (AII receptor; [3]): 3.14 nM

CCCCc1nc2ccc(C3=NN4CCCCC4C3)cc2c(=O)n1Cc1ccc(-c2ccccc2-c2nn[nH]n2)cc1 (centres unmarked) [2-butyl-6-(3,3a,4,5,6,7-hexahydropyrazolo[1,5-a]pyridin-2-yl)-3-[[2'-(1H-tetrazol-5-yl)[1,1'-biphenyl]-4-yl]methyl]-4(3H)-quinazolinone]
IC50 (AII receptor; [3]): 86.7 nM

CCCCc1nc2ccc(COc3ccccc3)cc2c(=O)n1Cc1ccc(-c2ccccc2-c2nnn[nH]2)cc1 [2-butyl-6-(phenoxymethyl)-3-[[2'-(1H-tetrazol-5-yl)[1,1'-biphenyl]-4-yl]methyl]-4(3H)-quinazolinone]
IC50 (AII receptor; [3]): 163 nM

CCCCc1nc2ccc(C3CC(c4ccc(C)cc4)=NO3)cc2c(=O)n1Cc1ccc(-c2ccccc2-c2nnn[nH]2)cc1 (centres unmarked) [2-butyl-6-[4,5-dihydro-3-(4-methylphenyl)-5-isoxazolyl]-3-[[2'-(1H-tetrazol-5-yl)[1,1'-biphenyl]-4-yl]methyl]-4(3H)-quinazolinone]
IC50 (AII receptor; [3]): 126 nM

CCCCc1nc2ccc(COc3ccccn3)cc2c(=O)n1Cc1ccc(-c2ccccc2-c2nn[nH]n2)cc1 [2-butyl-6-[(2-pyridinyloxy)methyl]-3-[[2'-(1H-tetrazol-5-yl)[1,1'-biphenyl]-4-yl]methyl]-4(3H)-quinazolinone hydrochloride]
IC50 (AII receptor; [3]): 17.2 nM

CCc1nc2c(C)cc(C)nc2n1Cc1ccc(-c2ccccc2-c2nnn[nH]2)cc1 [2-ethyl-5,7-dimethyl-3-[[2'-(1H-tetrazol-5-yl)[1,1-biphenyl]-4-yl]methyl]-3H-imidazo[4,5-b]pyridine, reference compound]
IC50 (AII receptor; [3]): 2.44 nM

CCCCc1nc(Cl)c(CO)n1Cc1ccc(-c2ccccc2-c2nnn[nH]2)cc1 [2-n-butyl-4-chloro-5-hydroxymethyl-1-[(2'-(1H-tetrazol-5-yl)biphenyl-4-yl)methyl]imidazole, reference compound]
Avg. Daily Food Intake, % Change From Control [1]: -8% | Avg. Weight Gain, % Change From Control [1]: -38% | Epididymal Fat Weight, % Change From Control [1]: -21% | Final Body Weight, % Change From Control [1]: -5% | Retroperitoneal Fat Weight, % Change From Control [1]: -16% | Avg. Daily Food Intake ([1]; n = 6): 30.1 g | Avg. Weight Gain ([1]; n = 6): 35 g | Epididymal Fat Weight ([1]; n = 6): 4.10 g | Final Body Weight ([1]; n = 6): 431 g | Retroperitoneal Fat Weight ([1]; n = 6): 4.10 g | Bmax, epididymal adipocyte AII receptor binding (adipocyte AII receptor): 24.7 fmole/mg protein | Adipocyte Cell Volume (epididymal adipocytes): 163 p1

CCCCc1nc2ccc(C3(C)CC(C(=O)OCC)=NO3)cc2c(=O)n1Cc1ccc(-c2ccccc2-c2nn[nH]n2)cc1 (centres unmarked) [5-[2-butyl-3,4-dihydro-4-oxo-3-[[2'-(1H-tetrazol-5-yl)[1,1'-biphenyl]-4-yl]methyl]-6-quinazolinyl]-4,5-dihyrdro-5-methyl-3-isoxazolecarboxylic acid ethyl ester]
IC50 (AII receptor; [3]): 35.7 nM

CCCc1nc(C)n2[nH]c(=O)nc2c1Cc1ccc(-c2ccccc2-c2nnn[nH]2)cc1 [5-methyl-7-propyl-8-[(2'-(1H-tetrazol-5-yl)biphenyl-4-yl)methyl]-1,2,4-triazolo[1,5-c]pyrimidin-2(3H)-one, reference compound]
IC50 (AII receptor; [3]): 5.63 nM

CCCCc1nc2ccc([C@H]3C[C@@H](CO)ON3C)cc2c(=O)n1Cc1ccc(-c2ccccc2-c2nnn[nH]2)cc1 [(3R-cis)-2-butyl-6-[5-(hydroxymethyl)-2-methyl-3-isoxazolidinyl]-3-[[2'-(1H-tetrazol-5-yl)[1,1'-biphenyl-4-yl]methyl]-4(3H)-quinazolinone]
IC50 (AII receptor; [3]): 8.2 nM

CCCCc1nc2ccc([C@@H]3C[C@@H](CO)ON3C)cc2c(=O)n1Cc1ccc(-c2ccccc2-c2nnn[nH]2)cc1 [(3S-trans)-2-butyl-6-[5-(hydroxymethyl)-2-methyl-3-isoxazolidinyl]-3-[[2'-(1H-tetrazol-5-yl)[1,1'-biphenyl]-4-yl]methyl]-4(3H)-quinazolinone]
IC50 (AII receptor; [3]): 18.6 nM

CCCCc1nc2ccc([C@@H]3C[C@@H]4[C@H](O3)ON3[C@H]4CCC3(C)C)cc2c(=O)n1Cc1ccc(-c2ccccc2-c2nn[nH]n2)cc1 [[2S-(2α,3aα,3bβ,8aα)]-2-butyl-6-(6,6'-dimethyloctahydrofuro[3,2-d]pyrrolo[1,2-d]isoxazol-2-yl)-3-[[2'-(1H-tetrazol-5-yl)[1,1'-biphenyl]-4-yl]methyl]-4(3H)-quinazolinone]
IC50 (AII receptor; [2]): 14.1 nM
